Source: patent publication US8575306B2, “Target and method for inhibition of bacterial RNA polymerase” (Rutgers, The State University of New Jersey, priority 2002, dated 2013)
Where a SMILES comes first, the peptide text is derived from it.

What was measured:
[1] = tested on: Gram-negative bacterial species, including E. coli; details: Salomon and Farias (1992); cited from earlier work
[2] = tested on: Strain DH5α transformed with a pRL663 derivative (substituted RNAP β′ subunit); assay: Minimum bacteriocidal concentration (MBC) assays, MccJ25-resistant rpoC mutants; type: cell-based, Escherichia coli; details: for MBC (minimum bacteriocidal concentration): 2 hr at 37° C.
Procedure: (RNAP β′ subunit comprises nearly one-half of all residues of RNAP and comprises all residues of the RNAP secondary channel). Mutagenesis using error-prone PCR was performed (Zhou (1991) Nucl. Acids Res. 19, 6052; Zhou et al., (1993) Proc. Natl. Acad. Sci. USA 90, 6081-6085) of five DNA segments spanning the length of a plasmid-borne rpoC gene (Table 1). Overall, 20 mutagenesis reactions were performed, ˜100,000 candidates were analyzed, and 22 independent plasmid-linked MccJ25-resistant mutants were isolated (Table 1). […] Complementation assays indicate that all 22 MccJ25-resistant mutants can complement an rpoC^ts mutant for growth at the non-permissive temperature, confirming that each encodes a β′ derivative functional in transcription—indeed sufficiently functional in transcription to support viability (Table 2, column 4).
A saturation mutagenesis using a set often “doped” oligodeoxyribonucleotide primers, designed to introduce all possible nucleotide substitutions at all positions of all codons for residues that line the RNAP secondary channel was performed (sequences in Table 3; methods essentially as in the following references (Ner et al., (1988) DNA 7, 127-134; Hermes et al., (1989) Gene 84, 143-151; and Niu et al., (1994) J. Mol. Biol. 243, 595-602). In total, 23 mutagenesis reactions were performed, ˜40,000 candidates were analyzed, and 105 independent plasmid-linked MccJ25-resistant mutants were isolated and characterized (Table 4).

RNAP holoenzyme = biological target: T1, RNAP holoenzyme (Escherichia coli, UniProt P0A8T7); assay: Transcription assays (abortive initiation and elongation, lacUV5 promoter); type: biochemical
T1 construct: RNAP holoenzyme was prepared from, strain XE54/pREII-NHα; made in house; host or cells: E. coli strain XE54/pREII-NHα
T1 sequence (P0A7Z4 whole entry): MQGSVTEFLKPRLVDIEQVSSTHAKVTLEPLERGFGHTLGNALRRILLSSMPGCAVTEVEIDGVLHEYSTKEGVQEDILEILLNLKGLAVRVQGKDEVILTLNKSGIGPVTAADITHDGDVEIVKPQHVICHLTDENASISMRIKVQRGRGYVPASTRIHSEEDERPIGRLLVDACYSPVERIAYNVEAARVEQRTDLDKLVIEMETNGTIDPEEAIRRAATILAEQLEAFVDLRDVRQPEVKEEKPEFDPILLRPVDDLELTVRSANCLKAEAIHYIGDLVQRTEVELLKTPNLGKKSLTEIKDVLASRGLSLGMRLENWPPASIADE
T1 sequence (P0A800 whole entry, further chain): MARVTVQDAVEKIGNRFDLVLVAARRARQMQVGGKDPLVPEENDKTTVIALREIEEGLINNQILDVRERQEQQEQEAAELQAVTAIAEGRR
T1 sequence (P00579 whole entry, further chain): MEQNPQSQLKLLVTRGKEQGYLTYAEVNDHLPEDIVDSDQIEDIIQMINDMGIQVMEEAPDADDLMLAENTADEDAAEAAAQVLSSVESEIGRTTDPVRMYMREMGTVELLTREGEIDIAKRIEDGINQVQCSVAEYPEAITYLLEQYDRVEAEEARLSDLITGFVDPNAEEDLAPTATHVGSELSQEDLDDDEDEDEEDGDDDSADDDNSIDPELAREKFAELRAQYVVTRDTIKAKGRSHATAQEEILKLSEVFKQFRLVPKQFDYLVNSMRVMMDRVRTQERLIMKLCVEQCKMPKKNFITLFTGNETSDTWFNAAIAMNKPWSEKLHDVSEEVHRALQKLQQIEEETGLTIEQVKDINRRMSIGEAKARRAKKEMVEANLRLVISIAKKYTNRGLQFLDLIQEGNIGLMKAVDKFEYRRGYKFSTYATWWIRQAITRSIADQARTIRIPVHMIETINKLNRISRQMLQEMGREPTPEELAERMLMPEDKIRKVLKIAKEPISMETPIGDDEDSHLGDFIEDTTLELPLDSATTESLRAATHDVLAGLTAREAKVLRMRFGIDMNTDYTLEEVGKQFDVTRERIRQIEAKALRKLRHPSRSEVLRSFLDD
T1 sequence (P0A8T7 whole entry): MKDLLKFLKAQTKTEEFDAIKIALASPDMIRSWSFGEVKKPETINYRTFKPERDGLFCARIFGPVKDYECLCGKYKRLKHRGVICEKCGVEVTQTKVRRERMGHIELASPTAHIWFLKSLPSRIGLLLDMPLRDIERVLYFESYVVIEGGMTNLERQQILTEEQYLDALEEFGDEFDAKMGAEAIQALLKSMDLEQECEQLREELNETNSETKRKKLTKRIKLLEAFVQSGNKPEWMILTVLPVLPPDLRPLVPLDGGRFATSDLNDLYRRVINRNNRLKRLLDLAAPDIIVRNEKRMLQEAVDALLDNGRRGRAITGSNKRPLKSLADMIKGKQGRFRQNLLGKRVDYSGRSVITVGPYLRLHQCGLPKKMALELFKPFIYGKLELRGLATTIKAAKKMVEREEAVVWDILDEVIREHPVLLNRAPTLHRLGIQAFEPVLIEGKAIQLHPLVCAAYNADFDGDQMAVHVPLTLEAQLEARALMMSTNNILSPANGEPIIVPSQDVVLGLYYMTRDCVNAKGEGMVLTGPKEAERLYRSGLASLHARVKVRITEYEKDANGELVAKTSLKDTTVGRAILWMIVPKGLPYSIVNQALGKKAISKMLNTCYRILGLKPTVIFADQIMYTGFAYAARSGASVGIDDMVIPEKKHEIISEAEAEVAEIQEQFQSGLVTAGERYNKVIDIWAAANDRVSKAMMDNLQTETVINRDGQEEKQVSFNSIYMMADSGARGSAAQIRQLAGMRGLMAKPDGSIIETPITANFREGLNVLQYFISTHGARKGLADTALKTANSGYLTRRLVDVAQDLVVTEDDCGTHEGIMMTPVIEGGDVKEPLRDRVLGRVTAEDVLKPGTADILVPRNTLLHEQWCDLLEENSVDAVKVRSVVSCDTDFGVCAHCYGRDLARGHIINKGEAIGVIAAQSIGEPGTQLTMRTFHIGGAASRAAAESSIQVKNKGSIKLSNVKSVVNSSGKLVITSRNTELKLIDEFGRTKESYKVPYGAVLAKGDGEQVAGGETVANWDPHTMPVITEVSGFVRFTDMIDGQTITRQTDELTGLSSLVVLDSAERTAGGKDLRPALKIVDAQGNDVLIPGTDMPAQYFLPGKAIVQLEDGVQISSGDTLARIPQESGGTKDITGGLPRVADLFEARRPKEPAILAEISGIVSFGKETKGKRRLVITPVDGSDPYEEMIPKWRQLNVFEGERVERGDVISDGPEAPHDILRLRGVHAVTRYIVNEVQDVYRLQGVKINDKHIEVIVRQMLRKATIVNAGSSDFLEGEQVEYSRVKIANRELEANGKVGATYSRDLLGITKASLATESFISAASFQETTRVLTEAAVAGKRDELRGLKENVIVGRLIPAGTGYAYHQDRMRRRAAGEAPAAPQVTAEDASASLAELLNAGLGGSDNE
T1 sequence (P0A8V2 whole entry, further chain): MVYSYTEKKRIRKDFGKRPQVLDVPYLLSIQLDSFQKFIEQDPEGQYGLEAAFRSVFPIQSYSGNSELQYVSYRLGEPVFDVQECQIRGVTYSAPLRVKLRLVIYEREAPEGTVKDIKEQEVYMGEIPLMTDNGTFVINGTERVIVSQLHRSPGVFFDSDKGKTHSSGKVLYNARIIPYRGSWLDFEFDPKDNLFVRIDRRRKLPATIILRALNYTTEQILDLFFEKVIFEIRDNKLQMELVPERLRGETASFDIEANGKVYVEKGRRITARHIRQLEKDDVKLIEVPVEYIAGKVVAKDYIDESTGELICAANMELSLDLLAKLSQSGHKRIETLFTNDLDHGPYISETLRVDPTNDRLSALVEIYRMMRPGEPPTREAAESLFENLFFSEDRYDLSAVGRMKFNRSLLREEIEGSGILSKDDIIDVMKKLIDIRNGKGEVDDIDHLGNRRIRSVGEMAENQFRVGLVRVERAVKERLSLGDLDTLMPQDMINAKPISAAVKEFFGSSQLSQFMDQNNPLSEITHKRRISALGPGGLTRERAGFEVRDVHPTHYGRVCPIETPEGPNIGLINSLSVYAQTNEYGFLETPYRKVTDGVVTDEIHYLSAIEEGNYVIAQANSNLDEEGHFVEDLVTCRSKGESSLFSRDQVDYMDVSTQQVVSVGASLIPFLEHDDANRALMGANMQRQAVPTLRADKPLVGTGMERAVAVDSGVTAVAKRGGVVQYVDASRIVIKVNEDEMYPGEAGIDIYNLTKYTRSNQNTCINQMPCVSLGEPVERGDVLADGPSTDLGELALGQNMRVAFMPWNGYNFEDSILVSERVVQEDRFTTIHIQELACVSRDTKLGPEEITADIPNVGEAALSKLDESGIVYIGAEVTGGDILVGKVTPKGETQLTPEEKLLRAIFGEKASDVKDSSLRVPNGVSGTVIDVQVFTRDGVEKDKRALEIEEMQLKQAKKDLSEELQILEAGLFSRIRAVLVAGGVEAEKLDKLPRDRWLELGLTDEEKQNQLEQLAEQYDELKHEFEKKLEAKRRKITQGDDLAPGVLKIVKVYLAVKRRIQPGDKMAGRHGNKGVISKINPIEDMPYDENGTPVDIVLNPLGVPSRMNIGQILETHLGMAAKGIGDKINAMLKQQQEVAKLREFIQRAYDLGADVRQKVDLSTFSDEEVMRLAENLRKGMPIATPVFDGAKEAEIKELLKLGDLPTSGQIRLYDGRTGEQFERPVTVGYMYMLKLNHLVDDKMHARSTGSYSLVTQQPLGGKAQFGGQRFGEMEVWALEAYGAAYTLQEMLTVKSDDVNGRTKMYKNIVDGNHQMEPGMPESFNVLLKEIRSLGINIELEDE
Procedure: MccJ25 interferes with a process common to both abortive initiation and elongation—i.e., NTP uptake, phosphodiester-bond formation, or translocation.
Following 15 min at 37° C., 0.5 μl 1 mg/ml heparin, was added, and, following a further 2 min at 37° C., RNA synthesis was initiated by addition of 2 μl 5 mM ApA and 125 μM (or 250 jiM, 500 μM, and 1 mM) each of [α-^32P]UTP (0.6 Bq/fmol), ATP, CTP, GTP. Following 5 min at 37° C., reactions were terminated by addition of 10 μl 80% formamide, 10 mM EDTA, 0.04% bromophenol blue, and 0.04% xylene cyanol. Products were heated 10 min at 90° C., resolved by urea-PAGE (Sambrook and Russell (2001). Molecular Cloning: A Laboratory Manual (Cold Spring Harbor, N.Y., Cold Spring Harbor Laboratory)), and quantified using an x/y storage-phosphor scanner (Storm 860; Molecular Dynamics, Inc.). Data were fit to full-competitive, partial-competitive, full-noncompetitive, partial-noncompetitive, full-uncompetitive, partial-uncompetitive, full-mixed, and partial-mixed models of inhibition using the Fit-To-Model feature of the SigmaPlot Enzyme Kinetics Module (SPSS, Inc.).

RNAP = assay: Cross-resistance with rifampicin; details: unpublished data
[3] = MccJ25 at 1, 10, or 100 μM, 5 min at 37° C.

CC[C@H](C)[C@H](NC(=O)CNC(=O)[C@@H](NC(=O)[C@H](Cc1ccccc1)NC(=O)[C@H](Cc1ccc(O)cc1)NC(=O)[C@@H]1CCC(=O)NCC(=O)NCC(=O)N[C@@H](C)C(=O)NCC(=O)N[C@@H](Cc2c[nH]cn2)C(=O)N[C@@H](C(C)C)C(=O)N2CCC[C@H]2C(=O)N1)C(C)C)C(=O)NCC(=O)N[C@H](C(=O)N1CCC[C@H]1C(=O)N[C@H](C(=O)N[C@@H](CO)C(=O)N[C@@H](Cc1ccccc1)C(=O)N[C@@H](Cc1ccc(O)cc1)C(=O)NCC(=O)O)[C@@H](C)CC)[C@@H](C)O [MccJ25] (HELM PEPTIDE1{G.G.A.G.H.V.P.E.Y.F.V.G.I.G.T.P.I.S.F.Y.G}$PEPTIDE1,PEPTIDE1,1:R1-8:R3$$$V2.0)
exhibits bacteriocidal activity: bacteriocidal activity [1]
0.05 mg/mi: MBC (minimum bacteriocidal concentration) ([2]; β′ 508 Leu->Val) | MBC (minimum bacteriocidal concentration) ([2]; β′ 738 Arg->Leu) | MBC (minimum bacteriocidal concentration) ([2]; β′ 744 Arg->His) | MBC (minimum bacteriocidal concentration) ([2]; β′ 744 Arg->Pro)
partial competitive: mode of inhibition (RNAP holoenzyme; with respect to NTPs, 7-mer and 8-mer abortive products)
NTP-concentration-dependent: NTP-concentration dependence of inhibition (RNAP holoenzyme; NTP 12.5, 25, 50 and 100 μM)
1 mg/mi: MBC (minimum bacteriocidal concentration) ([2]; β′ 498 Pro->Gln) | MBC (minimum bacteriocidal concentration) ([2]; β′ 498 Pro->Leu) | MBC (minimum bacteriocidal concentration) ([2]; β′ 684 Asp->Ala) | MBC (minimum bacteriocidal concentration) ([2]; β′ 735 Ala->Δ) | MBC (minimum bacteriocidal concentration) ([2]; β′ 777 His->Tyr) | MBC (minimum bacteriocidal concentration) ([2]; β′ 779 Ala->Thr) | MBC (minimum bacteriocidal concentration) ([2]; β′ 780 Arg->Cys) | MBC (minimum bacteriocidal concentration) ([2]; β′ 782 Gly->Ala) | MBC (minimum bacteriocidal concentration) ([2]; β′ 788 Leu->Met) | MBC (minimum bacteriocidal concentration) ([2]; β′ 789 Lys->Asn) | MBC (minimum bacteriocidal concentration) ([2]; β′ 789 Lys->Gln) | MBC (minimum bacteriocidal concentration) ([2]; β′ 790 Thr->Ala) | MBC (minimum bacteriocidal concentration) ([2]; β′ 790 Thr->Ile) | MBC (minimum bacteriocidal concentration) ([2]; β′ 927 Gly->Cys) | MBC (minimum bacteriocidal concentration) ([2]; β′ 927 Gly->Ser) | MBC (minimum bacteriocidal concentration) ([2]; β′ 930 Leu->Met) | MBC (minimum bacteriocidal concentration) ([2]; β′ 931 Thr->Ala) | MBC (minimum bacteriocidal concentration) ([2]; β′ 931 Thr->Ile) | MBC (minimum bacteriocidal concentration) ([2]; β′ 932 Met->Ile) | MBC (minimum bacteriocidal concentration) ([2]; β′ 933 Arg->Cys) | MBC (minimum bacteriocidal concentration) ([2]; β′ 1136 Gly->Cys) | MBC (minimum bacteriocidal concentration) ([2]; β′ 1137 Gly->Arg)
inhibits: inhibition of formation of abortive products (7 nt and 8 nt RNA species) (RNAP holoenzyme; [3]) | inhibition of formation of the full-length product (26 nt RNA species) (RNAP holoenzyme; [3])
≥ 50 fold: increase in MBC ([2]; 18 of 22 MccJ25-resistant mutants from random mutagenesis) | increase in MBC ([2]; all 22 MccJ25-resistant mutants from random mutagenesis)
0.5 mg/mi: MBC (minimum bacteriocidal concentration) ([2]; β′ 428 Thr->Asn) | MBC (minimum bacteriocidal concentration) ([2]; β′ 428 Thr->Ile) | MBC (minimum bacteriocidal concentration) ([2]; β′ 429 Leu->Gln) | MBC (minimum bacteriocidal concentration) ([2]; β′ 430 His->Tyr) | MBC (minimum bacteriocidal concentration) ([2]; β′ 503 Ser->Pro) | MBC (minimum bacteriocidal concentration) ([2]; β′ 503 Ser->Tyr) | MBC (minimum bacteriocidal concentration) ([2]; β′ 504 Gln->Arg) | MBC (minimum bacteriocidal concentration) ([2]; β′ 504 Gln->Glu) | MBC (minimum bacteriocidal concentration) ([2]; β′ 680 Asn->Lys) | MBC (minimum bacteriocidal concentration) ([2]; β′ 684 Asp->Glu) | MBC (minimum bacteriocidal concentration) ([2]; β′ 684 Asp->Tyr) | MBC (minimum bacteriocidal concentration) ([2]; β′ 684 Asp->Vai) | MBC (minimum bacteriocidal concentration) ([2]; β′ 733 Ser->Val) | MBC (minimum bacteriocidal concentration) ([2]; β′ 736 Gln->Pro) | MBC (minimum bacteriocidal concentration) ([2]; β′ 775 Ser->Cys) | MBC (minimum bacteriocidal concentration) ([2]; β′ 776 Thr->Ile) | MBC (minimum bacteriocidal concentration) ([2]; β′ 777 His->Pro) | MBC (minimum bacteriocidal concentration) ([2]; β′ 779 Ala->Gly) | MBC (minimum bacteriocidal concentration) ([2]; β′ 779 Ala->Pro) | MBC (minimum bacteriocidal concentration) ([2]; β′ 784 Ala->Glu) | MBC (minimum bacteriocidal concentration) ([2]; β′ 785 Asp->Gly) | MBC (minimum bacteriocidal concentration) ([2]; β′ 786 Thr->Ala) | MBC (minimum bacteriocidal concentration) ([2]; β′ 786 Thr->Ile) | MBC (minimum bacteriocidal concentration) ([2]; β′ 789 Lys->Arg) | MBC (minimum bacteriocidal concentration) ([2]; β′ 790 Thr->Asn) | MBC (minimum bacteriocidal concentration) ([2]; β′ 790 Thr->Ser) | MBC (minimum bacteriocidal concentration) ([2]; β′ 922 Cys->Tyr) | MBC (minimum bacteriocidal concentration) ([2]; β′ 926 Pro->Ser) | MBC (minimum bacteriocidal concentration) ([2]; β′ 1136 Gly->Ala) | MBC (minimum bacteriocidal concentration) ([2]; β′ 1137 Gly->Aia) | MBC (minimum bacteriocidal concentration) ([2]; β′ 1240 Val->Glu) | MBC (minimum bacteriocidal concentration) ([2]; β′ 1244 Gln->Leu) | MBC (minimum bacteriocidal concentration) ([2]; β′ multiple-substitution mutant 732 Gly->Asp, 735 Gly->Thr) | MBC (minimum bacteriocidal concentration) ([2]; β′ multiple-substitution mutant 777 His->Ser, 778 Gly->Ala)
do not exhibit cross-resistance: cross-resistance with rifampicin (RNAP)
0.1 mg/mi: MBC (minimum bacteriocidal concentration) ([2]; β′ 732 Gly->Asp) | MBC (minimum bacteriocidal concentration) ([2]; β′ 733 Ser->Phe) | MBC (minimum bacteriocidal concentration) ([2]; β′ 733 Ser->Tyr) | MBC (minimum bacteriocidal concentration) ([2]; β′ 748 Ala->Pro) | MBC (minimum bacteriocidal concentration) ([2]; β′ 783 Leu->Pro) | MBC (minimum bacteriocidal concentration) ([2]; β′ 1241 Tyr->Cys) | MBC (minimum bacteriocidal concentration) ([2]; β′ 1241 Tyr->His) | MBC (minimum bacteriocidal concentration) ([2]; β′ 1241 Tyr->Ser) | MBC (minimum bacteriocidal concentration) ([2]; β′ 1244 Gln->Glu) | MBC (minimum bacteriocidal concentration) ([2]; β′ 1244 Gln->Pro) | MBC (minimum bacteriocidal concentration) ([2]; β′ 1247 Lys->Gln) | MBC (minimum bacteriocidal concentration) ([2]; β′ 1247 Lys->Glu) | MBC (minimum bacteriocidal concentration) ([2]; β′ 1248 lle->Ser) | MBC (minimum bacteriocidal concentration) ([2]; β′ multiple-substitution mutant 493 Pro->Thr, 498 Pro->Thr) | MBC (minimum bacteriocidal concentration) ([2]; β′ multiple-substitution mutant 732 Gly->Asp, 733 Ser->Ala) | MBC (minimum bacteriocidal concentration) ([2]; β′ multiple-substitution mutant 733 Ser->Val, 734 Ala->Gly)
